# Reference: ChEMBL document CHEMBL1201862, “PubChem BioAssay data set” (2004)
# The source made the active and inactive calls.
# Key:
# [1] = target: Voltage-dependent T-type calcium channel subunit alpha-1H (Homo sapiens, UniProt O95180); format: functional;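 note: channel activity triggered by adding a high calcium stimulation buffer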
# cells [2] = format: functional
# P388/ADR = assay: cells; format: functional; conditions: Mus musculus
# SN12K1 = assay: cells; format: functional; conditions: Homo sapiens
# P388 = assay: cells; format: functional; conditions: Mus musculus
# [3] = A549 cell cytotoxicity, dose response, cytotoxicity control, plate reader, cherry-pick, antagonist series (AID 743412); format: functional, cell-based
# [4] = toxicity toward HepG2 liver cells – cell-based, plate reader, cherry-pick, antagonist series, cytotoxicity control, dose response (AID 743416); format: functional
# cells [5] = format: functional, cell-based
# cells [6] = format: functional, cell-based; remark: listed apart in the source
# Cytochrome P450 2C9 = Cytochrome P450 2C9 (Homo sapiens, UniProt P11712)
# Sequence of Cytochrome P450 2C9 (P11712 whole entry): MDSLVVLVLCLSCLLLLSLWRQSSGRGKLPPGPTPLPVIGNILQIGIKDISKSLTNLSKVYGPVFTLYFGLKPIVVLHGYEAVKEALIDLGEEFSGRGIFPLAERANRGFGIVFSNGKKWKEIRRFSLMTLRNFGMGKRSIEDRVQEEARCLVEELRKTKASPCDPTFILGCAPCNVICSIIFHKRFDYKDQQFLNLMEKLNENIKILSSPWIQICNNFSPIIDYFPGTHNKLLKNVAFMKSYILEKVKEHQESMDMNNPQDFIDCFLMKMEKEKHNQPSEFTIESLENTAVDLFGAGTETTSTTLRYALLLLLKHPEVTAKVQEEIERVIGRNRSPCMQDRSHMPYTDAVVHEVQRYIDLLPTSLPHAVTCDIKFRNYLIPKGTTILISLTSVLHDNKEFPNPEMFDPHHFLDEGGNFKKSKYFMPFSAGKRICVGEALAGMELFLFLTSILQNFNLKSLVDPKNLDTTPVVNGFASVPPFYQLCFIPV
# Paired box protein Pax-8 = Paired box protein Pax-8 (Homo sapiens, UniProt Q06710); assay: PAX8 transcriptional activity inhibition in RMG-I – RMG-I cells, luciferase, cherry-pick, dose response (AID 687027); format: functional, cell-based;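 note: luciferase reporter driven by Pax8 target thyroperoxidase promoter measured by SteadyGlo luminescence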
# Sequence of Paired box protein Pax-8 (Q06710 whole entry): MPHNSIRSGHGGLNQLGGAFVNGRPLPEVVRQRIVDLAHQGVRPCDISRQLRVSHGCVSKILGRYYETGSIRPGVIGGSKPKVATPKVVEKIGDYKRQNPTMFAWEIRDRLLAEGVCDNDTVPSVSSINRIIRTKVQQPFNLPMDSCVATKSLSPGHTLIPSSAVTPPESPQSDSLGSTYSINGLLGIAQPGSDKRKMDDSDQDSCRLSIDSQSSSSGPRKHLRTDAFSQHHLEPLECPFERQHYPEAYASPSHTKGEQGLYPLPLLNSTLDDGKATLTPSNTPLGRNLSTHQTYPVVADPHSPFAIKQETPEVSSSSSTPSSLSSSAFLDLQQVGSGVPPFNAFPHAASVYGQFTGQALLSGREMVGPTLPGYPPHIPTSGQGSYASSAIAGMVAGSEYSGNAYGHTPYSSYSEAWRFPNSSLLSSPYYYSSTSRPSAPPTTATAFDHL
# [7] = blockers of bursicon-stimulated LGR2 cAMP reporter – cell-based, HEK293, CRE-luciferase reporter, cherry pick, set 2, dose response (AID 743343); format: functional;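 note: transfected cells were stimulated with diluted bursicon conditioned medium after compound addition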
# [8] = blockers of HIV-1 envelope-mediated cell-cell fusion – cherry-pick, dose response (AID 652057); format: functional, cell-based
# [9] = blockers of HIV-1 ZM109 envelope-driven cell-cell fusion – HeLa effector, CEM target cells, luciferase, cherry-pick, dose response (AID 652058); format: functional, cell-based;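 note: luciferase signal from HIV-1 Env mediated cell-cell fusion of effector and target cells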
# [10] = off-target signal loss in HeLa-CEM21 co-culture – HeLa F-luc CTL cells, cherry-picked, counter-screen for HIV-1 Env fusion inhibitor project, dose response (AID 652040); format: functional, cell-based;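 note: potency for signal decrease marking cytotoxic or nonspecific inhibition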
# [11] = HIV-1 AD8 envelope cell-cell fusion blockers – cherry-pick, dose response (AID 652062); format: functional, cell-based;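 note: luciferase signal from cell-cell fusion driven by HIV-1 clade B AD8 Env; potency is for inhibitors of fusion seen as a drop in luminescence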
# [12] = blockade of melanocortin 4 receptor signaling – cell-based, plate reader, cherry pick, counter-screen for LGR2 antagonist project, dose response (AID 743444); format: functional;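 note: transfected HEK 293 cells stimulated with alpha-MSH peptide; potency of inhibitors of the alpha-MSH evoked signal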
# BJ [13] = assay: BJ-TERT fibroblast viability loss – cell-based, RAS-independent, luminescence, dose response (AID 1933); format: functional; conditions: Homo sapiens
# BJ [14] = assay: cells; format: functional, cell-based; conditions: Homo sapiens
# BJ [15] = assay: BJ-TERT-LT-ST fibroblast viability loss – cell-based, RAS-independent, luminescence, dose response (AID 1935); format: functional; conditions: Homo sapiens;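 note: BJ fibroblasts immortalized with TERT plus LT and ST oncogenes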
# [16] = DRD fibroblast viability loss – cell-based, non-viral oncogenic, luminescence, dose response (AID 1934); format: functional; conditions: Homo sapiens
# [17] = target: T1, Long-chain-fatty-acid--AMP ligase FadD28 (Mycobacterium tuberculosis, UniProt P9WQ59); assay: Fluorescence polarization aasay to screen for inhibitors that compete for the binding of FadD28 to a bisubstrate Measured in Biochemical System Using Plate Reader - 2147-01_Inhibitor_Dose_CherryPick_Activity.; format: functional, Mycobacterium tuberculosis H37Rv
# T1 sequence (P9WQ59 whole entry): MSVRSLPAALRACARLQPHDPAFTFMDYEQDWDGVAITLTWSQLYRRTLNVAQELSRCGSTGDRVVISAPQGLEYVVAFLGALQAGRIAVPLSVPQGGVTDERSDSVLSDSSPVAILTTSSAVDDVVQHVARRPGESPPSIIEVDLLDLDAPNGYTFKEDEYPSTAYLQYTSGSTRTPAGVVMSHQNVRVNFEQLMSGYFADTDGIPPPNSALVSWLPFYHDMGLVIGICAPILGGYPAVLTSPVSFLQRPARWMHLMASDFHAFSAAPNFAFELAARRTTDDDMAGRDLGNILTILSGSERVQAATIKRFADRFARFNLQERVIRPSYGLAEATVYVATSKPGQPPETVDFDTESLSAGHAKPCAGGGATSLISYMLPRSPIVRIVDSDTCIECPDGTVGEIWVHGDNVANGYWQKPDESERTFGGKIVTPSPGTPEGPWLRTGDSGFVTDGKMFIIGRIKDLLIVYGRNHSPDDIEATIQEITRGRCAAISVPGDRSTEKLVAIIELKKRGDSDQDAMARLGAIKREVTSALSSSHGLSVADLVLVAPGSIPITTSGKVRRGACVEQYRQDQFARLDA
# Nonstructural protein 1 = Nonstructural protein 1 (Influenza A virus, UniProt Q194T2); format: functional, Influenza A virus (A/California/07/2009(H1N1))
# Sequence of Nonstructural protein 1 (Q194T2 whole entry): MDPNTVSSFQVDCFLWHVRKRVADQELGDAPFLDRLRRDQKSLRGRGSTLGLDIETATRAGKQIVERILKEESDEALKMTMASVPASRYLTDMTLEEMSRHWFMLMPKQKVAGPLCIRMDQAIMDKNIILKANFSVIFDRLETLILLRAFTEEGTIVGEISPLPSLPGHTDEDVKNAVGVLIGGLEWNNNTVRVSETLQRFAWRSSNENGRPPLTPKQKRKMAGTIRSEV
# Cytochrome P450 3A4 = Cytochrome P450 3A4 (Homo sapiens, UniProt P08684);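 note: CYP3A4 tested as one member of a cytochrome P450 panel screen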
# Sequence of Cytochrome P450 3A4 (P08684 whole entry): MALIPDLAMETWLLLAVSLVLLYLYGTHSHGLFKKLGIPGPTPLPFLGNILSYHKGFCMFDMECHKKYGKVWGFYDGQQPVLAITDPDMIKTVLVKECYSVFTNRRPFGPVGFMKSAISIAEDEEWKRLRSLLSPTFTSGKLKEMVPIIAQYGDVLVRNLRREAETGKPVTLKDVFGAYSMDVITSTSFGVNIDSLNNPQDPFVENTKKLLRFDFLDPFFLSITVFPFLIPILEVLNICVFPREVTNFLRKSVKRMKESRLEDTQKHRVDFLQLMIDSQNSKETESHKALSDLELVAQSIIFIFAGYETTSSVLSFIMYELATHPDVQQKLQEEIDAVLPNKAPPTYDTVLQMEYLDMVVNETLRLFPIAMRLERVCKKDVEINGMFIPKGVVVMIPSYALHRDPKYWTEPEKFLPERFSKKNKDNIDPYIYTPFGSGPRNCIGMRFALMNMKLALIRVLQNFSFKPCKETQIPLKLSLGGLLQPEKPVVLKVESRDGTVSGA
# Cytochrome P450 2C19 = Cytochrome P450 2C19 (Homo sapiens, UniProt P33261); assay: Cytochrome panel assay with activity outcomes. Panel member name: p450-cyp2c19 Compounds with AC50 equal or less than 10 uM are considered active; format: functional; conditions: read-out: AC50
# Sequence of Cytochrome P450 2C19 (P33261 whole entry): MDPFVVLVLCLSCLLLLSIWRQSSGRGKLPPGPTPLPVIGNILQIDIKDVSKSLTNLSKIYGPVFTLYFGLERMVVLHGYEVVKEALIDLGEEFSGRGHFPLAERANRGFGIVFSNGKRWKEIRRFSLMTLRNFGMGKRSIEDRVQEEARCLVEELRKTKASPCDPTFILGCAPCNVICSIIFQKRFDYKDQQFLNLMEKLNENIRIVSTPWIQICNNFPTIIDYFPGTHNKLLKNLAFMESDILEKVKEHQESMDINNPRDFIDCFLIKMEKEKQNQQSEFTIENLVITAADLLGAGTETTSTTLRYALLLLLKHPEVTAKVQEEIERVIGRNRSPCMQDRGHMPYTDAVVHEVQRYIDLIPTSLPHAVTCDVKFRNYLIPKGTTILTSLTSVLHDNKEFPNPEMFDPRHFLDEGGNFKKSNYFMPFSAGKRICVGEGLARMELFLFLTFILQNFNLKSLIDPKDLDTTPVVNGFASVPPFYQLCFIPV
# H9c2 = assay: cells; format: functional, cell-based; conditions: Rattus norvegicus, H9c2, Myocardium;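 note: confirmatory concentration-response retest of ultra-high-throughput screening hits for modulation of myocardial damage; cell death induced by hydrogen peroxide oxidative stress; compound pretreatment for 60 min then peroxide exposure for 2 h; potency is for protecting the cells against peroxide damage rather than for killing them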
# Cytochrome P450 2D6 = Cytochrome P450 2D6 (Homo sapiens, UniProt P10635);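 note: CYP2D6 member of a cytochrome P450 panel assay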
# [18] = Luminescence Cell-Based Dose Retest to Confirm Inhibitors of Cancer Stem Cells. [Related pubchem assays (depositor defined):AID2717, AID2721]; format: functional; conditions: Homo sapiens
# [19] = target: FAD-linked sulfhydryl oxidase ALR (Homo sapiens, UniProt P55789); assay: ALR-catalysed DTT oxidation blockers – biochemical, H2O2 detection, luminescence, cherry-pick, dose response (AID 493248)
# Sequence of FAD-linked sulfhydryl oxidase ALR (P55789 whole entry): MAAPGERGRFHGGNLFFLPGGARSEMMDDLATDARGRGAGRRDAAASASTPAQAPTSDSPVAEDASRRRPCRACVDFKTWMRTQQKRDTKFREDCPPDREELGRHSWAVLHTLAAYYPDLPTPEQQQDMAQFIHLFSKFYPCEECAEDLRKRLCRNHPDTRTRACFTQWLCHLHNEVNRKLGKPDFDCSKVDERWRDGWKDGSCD
# [20] = luciferase reporter signal suppression in cells – H4 neuroglioma cells, luminescence, dose response (AID 1990); format: functional, cell-based
# [21] = Luminescence Cell-Based Dose Response HTS to Identify Inhibitors of 5'UTR Stem-Loop Driven Prion Protein mRNA Translation in H4 Neuroglioblastoma Cells. [Related pubchem assays: 1827 (Project Summary), 1813 (Primary HTS)]; format: functional
# Sequence of Voltage-dependent T-type calcium channel subunit alpha-1H (O95180 whole entry): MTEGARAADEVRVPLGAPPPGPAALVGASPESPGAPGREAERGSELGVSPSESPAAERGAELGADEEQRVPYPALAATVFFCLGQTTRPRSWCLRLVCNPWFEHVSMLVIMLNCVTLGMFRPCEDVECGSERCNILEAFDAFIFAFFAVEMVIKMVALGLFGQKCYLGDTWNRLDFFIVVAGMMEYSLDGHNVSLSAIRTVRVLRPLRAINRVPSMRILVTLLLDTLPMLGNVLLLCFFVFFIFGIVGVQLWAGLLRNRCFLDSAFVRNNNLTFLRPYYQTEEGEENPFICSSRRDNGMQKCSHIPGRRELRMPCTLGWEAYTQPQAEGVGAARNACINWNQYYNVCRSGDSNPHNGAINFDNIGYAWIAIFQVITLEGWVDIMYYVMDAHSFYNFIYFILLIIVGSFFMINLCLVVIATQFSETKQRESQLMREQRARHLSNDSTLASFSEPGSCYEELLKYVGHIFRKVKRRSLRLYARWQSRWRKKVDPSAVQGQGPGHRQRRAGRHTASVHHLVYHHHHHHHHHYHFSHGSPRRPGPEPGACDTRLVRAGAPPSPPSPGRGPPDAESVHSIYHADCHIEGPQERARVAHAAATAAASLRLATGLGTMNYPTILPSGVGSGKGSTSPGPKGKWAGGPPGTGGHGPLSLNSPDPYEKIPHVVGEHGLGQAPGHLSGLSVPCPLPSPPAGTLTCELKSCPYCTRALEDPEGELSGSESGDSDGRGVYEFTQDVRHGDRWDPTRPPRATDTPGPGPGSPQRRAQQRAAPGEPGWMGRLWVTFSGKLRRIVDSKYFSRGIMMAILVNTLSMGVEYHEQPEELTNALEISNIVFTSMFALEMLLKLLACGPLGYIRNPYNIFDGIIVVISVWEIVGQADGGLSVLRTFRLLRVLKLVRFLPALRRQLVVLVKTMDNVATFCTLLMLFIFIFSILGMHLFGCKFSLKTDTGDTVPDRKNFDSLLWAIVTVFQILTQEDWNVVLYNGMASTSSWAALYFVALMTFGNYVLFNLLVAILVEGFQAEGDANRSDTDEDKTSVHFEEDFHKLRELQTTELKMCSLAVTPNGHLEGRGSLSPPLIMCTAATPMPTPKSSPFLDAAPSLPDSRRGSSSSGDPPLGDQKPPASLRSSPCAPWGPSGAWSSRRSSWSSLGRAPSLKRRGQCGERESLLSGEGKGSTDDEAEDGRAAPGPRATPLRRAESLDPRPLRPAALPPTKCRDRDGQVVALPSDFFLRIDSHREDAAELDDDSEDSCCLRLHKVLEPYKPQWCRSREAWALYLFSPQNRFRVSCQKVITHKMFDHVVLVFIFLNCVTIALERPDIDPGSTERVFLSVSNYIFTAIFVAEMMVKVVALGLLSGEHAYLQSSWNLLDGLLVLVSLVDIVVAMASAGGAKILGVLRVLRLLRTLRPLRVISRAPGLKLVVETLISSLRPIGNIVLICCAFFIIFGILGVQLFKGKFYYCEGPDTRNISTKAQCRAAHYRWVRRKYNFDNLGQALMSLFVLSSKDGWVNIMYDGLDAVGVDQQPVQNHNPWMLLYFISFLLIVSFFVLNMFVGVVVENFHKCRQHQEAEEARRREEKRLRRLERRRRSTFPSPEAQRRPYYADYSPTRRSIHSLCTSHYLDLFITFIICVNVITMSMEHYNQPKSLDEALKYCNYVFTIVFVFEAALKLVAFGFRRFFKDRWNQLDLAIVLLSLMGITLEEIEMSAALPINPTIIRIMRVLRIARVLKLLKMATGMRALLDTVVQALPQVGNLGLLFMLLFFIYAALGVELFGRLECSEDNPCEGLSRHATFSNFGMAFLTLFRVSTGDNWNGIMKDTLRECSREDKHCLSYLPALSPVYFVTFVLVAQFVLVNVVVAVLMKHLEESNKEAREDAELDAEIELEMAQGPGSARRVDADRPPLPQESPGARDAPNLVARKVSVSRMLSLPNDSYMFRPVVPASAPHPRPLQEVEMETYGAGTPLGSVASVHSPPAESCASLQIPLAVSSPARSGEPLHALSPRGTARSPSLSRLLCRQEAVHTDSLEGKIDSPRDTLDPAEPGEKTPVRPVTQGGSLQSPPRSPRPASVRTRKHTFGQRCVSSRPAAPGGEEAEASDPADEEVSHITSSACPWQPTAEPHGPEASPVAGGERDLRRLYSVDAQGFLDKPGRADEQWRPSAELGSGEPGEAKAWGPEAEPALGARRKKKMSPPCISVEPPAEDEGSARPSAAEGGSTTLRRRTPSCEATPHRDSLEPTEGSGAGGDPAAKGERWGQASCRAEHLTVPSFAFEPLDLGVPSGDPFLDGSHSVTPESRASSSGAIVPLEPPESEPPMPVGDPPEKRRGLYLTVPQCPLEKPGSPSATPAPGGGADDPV
smiles,measurement,setting,value
Cc1ccc(-c2noc(CCC(=O)Nc3cccc(C#N)c3)n2)cc1,EC50,[1],2.84 µM (active)
same,IC50,cells [2],19.9 µM (active)
COc1cc(C2c3cc4c(cc3[C@@H](Nc3ccc(Oc5ccccc5)cc3)C3COC(=O)[C@H]23)OCO4)cc(OC)c1O (some centres undefined),GI50,P388/ADR,0.407 µM (active)
same,GI50,SN12K1,0.935 µM (active)
same,GI50,P388,0.0504 µM (active)
C=CCc1cc(C)ccc1OCC(O)CN1CCN(c2ccccc2)CC1 (centres undefined),EC50,[1],8.33 µM (active)
c1ccc(COc2cccc(-c3cc4nc(NCCCn5ccnc5)ccn4n3)c2)cc1,AC50,[3],40 µM (active)
same,AC50,[4],> 52 µM (inactive)
CN1C(C(=O)NCCc2cccs2)CC2Cn3c(nc4ccccc43)C21 (centres undefined),IC50,cells [5],> 29.9 µM (inactive)
same,EC50,cells [6],> 29.9 µM (inactive)
Cc1c2ccncc2c(C)c2c1[nH]c1ccc(Cl)cc12,GI50,P388/ADR,1.83 µM (inactive)
same,GI50,SN12K1,2.94 µM (inactive)
same,GI50,P388,1.63 µM (inactive)
Cc1nc2cnc(N(C)C)nc2n(Cc2ccc(F)cc2)c1=O,AC50,Cytochrome P450 2C9,inconclusive
Cc1ccc(S(=O)(=O)N(CC(=O)N2CCN(c3ccc(F)cc3)CC2)C2CCCCC2)cc1,EC50,[1],4.33 µM (active)
Cc1ccccc1-n1nc2c(c1NC(=O)c1ccc(Br)o1)CSC2,EC50,[1],5.29 µM (active)
CC(=O)Nc1ccc(S(=O)(=O)c2ccnc3cc(Cl)ccc23)cc1,AC50,Paired box protein Pax-8,0.449 µM (active)
same,AC50,[3],26.9 µM (active)
same,AC50,[7],66.3 µM (active)
Cc1nc2ncnn2c(N2CCCC(C(=O)Nc3ccc4c(c3)CCC4)C2)c1C (centres undefined),AC50,[8],3.21 µM (active)
same,AC50,[9],17.1 µM (active)
same,AC50,[10],3.66 µM (active)
same,AC50,[11],8.01 µM (active)
CC(NC1=NCCS1)c1ccccc1 (centres undefined),IC50,cells [5],> 29.9 µM (inactive)
same,EC50,cells [6],> 29.9 µM (inactive)
CCOC(=O)[C@@H]1[C@H]2COc3cc(OC)ccc3[C@H]2N2C(=O)N(c3cccc(F)c3)C(=O)[C@@]12C,AC50,[8],35.2 µM (active)
CC(CN1CC(=O)NC(=O)C1)N1CC(=O)NC(=O)C1 (centres undefined) [RAZOXANE],GI50,P388/ADR,141 µM (inactive)
same,GI50,SN12K1,58.1 µM (inactive)
same,GI50,P388,1.85 µM (inactive)
COc1cc(/N=N\c2cccc(S(=O)(=O)O)c2)ccc1/N=N\c1ccc(/C=C/c2ccc(-n3on3-c3ccc(/C=C/c4ccc(/N=N/c5ccc(/N=N\c6cccc(S(=O)(=O)O)c6)cc5OC)cc4S(=O)(=O)O)c(S(=O)(=O)O)c3)cc2S(=O)(=O)O)c(S(=O)(=O)O)c1,GI50,P388/ADR,> 100 µM (inactive)
same,GI50,SN12K1,> 100 µM (inactive)
same,GI50,P388,> 100 µM (inactive)
CCc1nc(Sc2nnnn2-c2ccccc2)c2c3c(sc2n1)CCCC3,AC50,[7],5.1 µM (active)
same,AC50,[12],5.14 µM (active)
COCCOC(=O)c1[nH]c2c(c1C)C(=O)CC(c1cccs1)C2 (centres undefined),EC50,BJ [13],4.56 µM (active)
same,EC50,BJ [14],66.4 µM (active)
same,EC50,BJ [15],3.8 µM (active)
same,EC50,[16],12.9 µM (active)
Cc1cccc(NC(=O)COC(=O)c2cccc(S(=O)(=O)N3CCCCCC3)c2)c1,AC50,[17],7.43 µM (active)
O=S(=O)(c1ccc(NC(=S)NN=C2CCCCC2)cc1)N1CCOCC1,IC50,Nonstructural protein 1,24.8 µM (active)
COC(=O)C[C@H]1C=C[C@H](NC(=O)c2ccccn2)[C@@H](CO)O1,AC50,[9],0.414 µM (active)
COc1ccc(Oc2ncc3nc(-c4cn(C)c5ccccc45)c(=O)n(C)c3n2)cc1,AC50,Cytochrome P450 3A4,15.8 µM (inconclusive)
same,AC50,Cytochrome P450 2C9,inconclusive
CCOc1ccccc1NC1=C(Cl)C(=O)N(Cc2ccccc2)C1=O,EC50,BJ [13],> 150 µM (not active)
same,EC50,BJ [14],> 150 µM (not active)
same,EC50,BJ [15],> 150 µM (not active)
same,EC50,[16],> 150 µM (not active)
S=C(NCc1ccccc1)NCc1cccc(CNC(=S)NCc2ccccc2)c1,AC50,[17],27.3 µM (active)
Cc1cccc(NC(=O)CN2C(=O)N/C(=C/c3ccc(-c4cccc(C(=O)O)c4C)o3)C2=O)c1,AC50,[17],72.3 µM (active)
COc1ccccc1CNc1cc(-c2cccc(NS(C)(=O)=O)c2)ncn1,AC50,Cytochrome P450 2C19,20 µM (inconclusive)
same,AC50,Cytochrome P450 2C9,inconclusive
O=C(O)c1ccc(-c2nc(-c3ccccc3)c(-c3ccccc3)[nH]2)cc1,AC50,[17],92.3 µM (active)
CCC(=O)Nc1cccc(-c2nnc(-c3cccc(NC(=O)CC)c3)o2)c1,IC50,H9c2,> 79 µM (inactive)
same,AC50,Cytochrome P450 2D6,17.8 µM (inconclusive)
same,AC50,Cytochrome P450 2C9,inconclusive
CCOc1cccc(/C=N/N2C(=O)CSC2=S)c1O,IC50,Nonstructural protein 1,1.83 µM (active)
Cc1[nH]c2ccccc2c1CN1CCc2ccccc2C1,IC50,cells [5],> 29.9 µM (inactive)
same,EC50,cells [6],> 29.9 µM (inactive)
COc1ccc(C(c2nnnn2Cc2ccc(F)cc2)N2CCN(c3ccccc3)CC2)cc1 (centres undefined),EC50,[1],2.66 µM (active)
S=c1sc2c(s1)SC(c1ccccc1)CS2 (centres undefined),GI50,P388/ADR,44.6 µM (inactive)
same,GI50,SN12K1,> 89.5 µM (inactive)
same,GI50,P388,9.86 µM (inactive)
N/C(=N\O)N/N=C\c1ccc(O)c(O)c1O,GI50,P388/ADR,8.65 µM (inactive)
same,GI50,SN12K1,17.7 µM (inactive)
same,GI50,P388,14.4 µM (inactive)
O=S(=O)(c1ccc(Cl)cc1)N1CCCN(c2nc3ccc(Cl)cc3s2)CC1,AC50,[8],3.94 µM (active)
same,AC50,[9],0.922 µM (active)
same,AC50,[10],4.14 µM (active)
same,AC50,[11],5.18 µM (active)
Clc1ccc(CSc2nnnn2-c2ccc3c(c2)OCO3)c(Cl)c1,EC50,[1],9.79 µM (active)
same,AC50,[18],13.1 µM (active)
CN(C)c1ccc(C(=O)Nc2nc3c(s2)CCCC3)cc1,AC50,[19],0.188 µM (active)
same,AC50,[4],51.1 µM (active)
same,AC50,[7],8.81 µM (active)
same,AC50,[12],11.4 µM (active)
CCCC[S+]([O-])CC(CO)NC(=O)/C=C/c1c(C)[nH]c(=O)[nH]c1=O (centres undefined),GI50,P388/ADR,1.5 µM (inactive)
same,GI50,SN12K1,6.01 µM (inactive)
same,GI50,P388,1.58 µM (inactive)
COc1ccc(NC(=O)c2cc(CC(C)C)nc3ccccc23)cc1,EC50,[20],> 120 µM (not active)
same,EC50,[21],> 120 µM (not active)
same,AC50,[8],0.655 µM (active)
same,AC50,[9],< 0.26 µM (active)
same,AC50,[10],1.06 µM (active)
same,AC50,[11],1.11 µM (active)
